Test system: 171881-019-R-J1-PDC tumor spheroids, viability
Experiment: Anticancer human tumor 171881-019-R-J1-PDC patient-derived invasive breast carcinoma cell line growth inhibition [GQUAD]
Conditions: spheroids with HUVEC and MSC; for IC50: curve of first compound; for viability, T/C: stronger effect = lower value
How it was run: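 Viability of tumor cells grown as complex spheroids with endothelial and stromal cells, exposed to drug combinations. Top concentration at or near clinical Cmax (else 10 microM), diluted in half-log increments.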

[1] = second compound 0.0316 µM, first compound 0.0316 µM
[2] = second compound 0.0316 µM, first compound 0.1 µM
[3] = second compound 0.0316 µM, first compound 0.316 µM
[4] = second compound 0.0316 µM, first compound 1 µM
[5] = second compound 0.0316 µM, first compound 3.16 µM
[6] = second compound 0.0316 µM, first compound 10 µM
[7] = second compound 0.1 µM, first compound 0.0316 µM
[8] = second compound 0.1 µM, first compound 0.1 µM
[9] = second compound 0.1 µM, first compound 0.316 µM
[10] = second compound 0.1 µM, first compound 1 µM
[11] = second compound 0.1 µM, first compound 3.16 µM
[12] = second compound 0.1 µM, first compound 10 µM
[13] = second compound 0.316 µM, first compound 0.0316 µM
[14] = second compound 0.316 µM, first compound 0.1 µM
[15] = second compound 0.316 µM, first compound 0.316 µM
[16] = second compound 0.316 µM, first compound 1 µM
[17] = second compound 0.316 µM, first compound 3.16 µM
[18] = second compound 0.316 µM, first compound 10 µM
[19] = second compound 1 µM, first compound 0.0316 µM
[20] = second compound 1 µM, first compound 0.1 µM
[21] = second compound 1 µM, first compound 0.316 µM
[22] = second compound 1 µM, first compound 1 µM
[23] = second compound 1 µM, first compound 3.16 µM
[24] = second compound 1 µM, first compound 10 µM
[25] = second compound 3.16 µM, first compound 0.0316 µM
[26] = second compound 3.16 µM, first compound 0.1 µM
[27] = second compound 3.16 µM, first compound 0.316 µM
[28] = second compound 3.16 µM, first compound 1 µM
[29] = second compound 3.16 µM, first compound 3.16 µM
[30] = second compound 3.16 µM, first compound 10 µM
[31] = second compound 10 µM, first compound 0.0316 µM
[32] = second compound 10 µM, first compound 0.1 µM
[33] = second compound 10 µM, first compound 0.316 µM
[34] = second compound 10 µM, first compound 1 µM
[35] = second compound 10 µM, first compound 3.16 µM
[36] = second compound 10 µM, first compound 10 µM
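For viability, T/C in this document: 100% = DMSO vehicle control viability.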

O=c1[nH]cc(F)c(=O)[nH]1 + CN(C)c1ccc(Nc2c3ccc(NC(=O)CCN4CCCC4)cc3nc3cc(NC(=O)CCN4CCCC4)ccc23)cc1
IC50 (second compound 0.0316 µM): > 10000 nM | IC50 (second compound 0.1 µM): > 10000 nM | IC50 (second compound 0.316 µM): 9940 nM | IC50 (second compound 1 µM): < 31.6 nM | IC50 (second compound 3.16 µM): < 31.6 nM | IC50 (second compound 10 µM): < 31.6 nM | viability, T/C [1]: 84% | viability, T/C [2]: 79.3% | viability, T/C [3]: 75.2% | viability, T/C [4]: 69.5% | viability, T/C [5]: 62.9% | viability, T/C [6]: 63.9% | viability, T/C [7]: 79.7% | viability, T/C [8]: 72.9% | viability, T/C [9]: 73.4% | viability, T/C [10]: 69.1% | viability, T/C [11]: 65.7% | viability, T/C [12]: 61.6% | viability, T/C [13]: 70.5% | viability, T/C [14]: 69.4% | viability, T/C [15]: 69.5% | viability, T/C [16]: 55.4% | viability, T/C [17]: 58% | viability, T/C [18]: 49.9% | viability, T/C [19]: 14.9% | viability, T/C [20]: 11.1% | viability, T/C [21]: 17% | viability, T/C [22]: 12.6% | viability, T/C [23]: 13.4% | viability, T/C [24]: 15.8% | viability, T/C [25]: 2.15% | viability, T/C [26]: 1.36% | viability, T/C [27]: 2.04% | viability, T/C [28]: 2.2% | viability, T/C [29]: 2.62% | viability, T/C [30]: 2.05% | viability, T/C [31]: 0.33% | viability, T/C [32]: 0.41% | viability, T/C [33]: 0.8% | viability, T/C [34]: 0.38% | viability, T/C [35]: 0.5% | viability, T/C [36]: 0.29%

Nc1ccn(C2OC(CO)C(O)C2(F)F)c(=O)n1 (stereo unspecified) + Cc1[nH]c2ccc(F)cc2c1-c1nc2c3cccnc3c3ncccc3c2[nH]1
IC50 (second compound 0.0316 µM): < 31.6 nM | IC50 (second compound 0.1 µM): < 31.6 nM | IC50 (second compound 0.316 µM): < 31.6 nM | IC50 (second compound 1 µM): < 31.6 nM | IC50 (second compound 3.16 µM): < 31.6 nM | IC50 (second compound 10 µM): < 31.6 nM | viability, T/C [1]: 25.9% | viability, T/C [2]: 28.6% | viability, T/C [3]: 39.9% | viability, T/C [4]: 38.6% | viability, T/C [5]: 36.5% | viability, T/C [6]: 31.6% | viability, T/C [7]: 25.8% | viability, T/C [8]: 30.9% | viability, T/C [9]: 38.6% | viability, T/C [10]: 41.2% | viability, T/C [11]: 35.9% | viability, T/C [12]: 31.3% | viability, T/C [13]: 26.7% | viability, T/C [14]: 29.6% | viability, T/C [15]: 35.7% | viability, T/C [16]: 35.2% | viability, T/C [17]: 38.6% | viability, T/C [18]: 31.7% | viability, T/C [19]: 26.7% | viability, T/C [20]: 28.6% | viability, T/C [21]: 38% | viability, T/C [22]: 35.8% | viability, T/C [23]: 39.1% | viability, T/C [24]: 31.1% | viability, T/C [25]: 18.5% | viability, T/C [26]: 14% | viability, T/C [27]: 19.1% | viability, T/C [28]: 16.8% | viability, T/C [29]: 19.9% | viability, T/C [30]: 16.2% | viability, T/C [31]: 20.3% | viability, T/C [32]: 23.7% | viability, T/C [33]: 27.2% | viability, T/C [34]: 28.6% | viability, T/C [35]: 26.6% | viability, T/C [36]: 26.1%

CC1COCCN1c1cc(-c2ccnn2C)c2ccnc(-c3ccn[nH]3)c2n1 (stereo unspecified) + CN(C)c1ccc(Nc2c3ccc(NC(=O)CCN4CCCC4)cc3nc3cc(NC(=O)CCN4CCCC4)ccc23)cc1
IC50 (second compound 0.0316 µM): 65.2 nM | IC50 (second compound 0.1 µM): 51.9 nM | IC50 (second compound 0.316 µM): 40.8 nM | IC50 (second compound 1 µM): < 31.6 nM | IC50 (second compound 3.16 µM): < 31.6 nM | IC50 (second compound 10 µM): < 31.6 nM | viability, T/C [1]: 76.9% | viability, T/C [2]: 34.1% | viability, T/C [3]: 12.4% | viability, T/C [4]: 5.31% | viability, T/C [5]: 1.79% | viability, T/C [6]: 1.42% | viability, T/C [7]: 64.8% | viability, T/C [8]: 30.4% | viability, T/C [9]: 11.6% | viability, T/C [10]: 5.34% | viability, T/C [11]: 1.93% | viability, T/C [12]: 1.63% | viability, T/C [13]: 55.2% | viability, T/C [14]: 31.6% | viability, T/C [15]: 10.3% | viability, T/C [16]: 3.25% | viability, T/C [17]: 1.4% | viability, T/C [18]: 1.07% | viability, T/C [19]: 20.7% | viability, T/C [20]: 8.28% | viability, T/C [21]: 4.88% | viability, T/C [22]: 1.45% | viability, T/C [23]: 0.66% | viability, T/C [24]: 0.48% | viability, T/C [25]: 1.59% | viability, T/C [26]: 1.01% | viability, T/C [27]: 0.89% | viability, T/C [28]: 0.34% | viability, T/C [29]: 0.71% | viability, T/C [30]: 0.14% | viability, T/C [31]: 0.16% | viability, T/C [32]: 0.3% | viability, T/C [33]: 0.33% | viability, T/C [34]: 0.32% | viability, T/C [35]: 0.43% | viability, T/C [36]: 0.14%

From PubChem BioAssay AID2060498 (Molecular Pharmacology Branch, DTP, NCI, 2025)
